Experimental data from patent US11149031B2, “Substituted N-(3-fluoropropyl)-pyrrolidine compounds, processes for their preparation and therapeutic uses thereof” (SANOFI, priority 2016, dated 2021).
Read-outs that look alike come from different tables or passages of the source.

What was measured:
ERα in MCF7 cells = ERα in MCF7 cells (Homo sapiens (Human), UniProt P03372); assay: Test C: estrogen receptor degradation activity, ERα in cell western assay in MCF7 cells; format: cell-based; settings: for DC50: 4 hours post compound addition, ERα in cell western, read-out: Degradation IC50; for % Degradation at 3 μM: 4 hours, relative to fulvestrant
Sequence of ERα in MCF7 cells (P03372 whole entry): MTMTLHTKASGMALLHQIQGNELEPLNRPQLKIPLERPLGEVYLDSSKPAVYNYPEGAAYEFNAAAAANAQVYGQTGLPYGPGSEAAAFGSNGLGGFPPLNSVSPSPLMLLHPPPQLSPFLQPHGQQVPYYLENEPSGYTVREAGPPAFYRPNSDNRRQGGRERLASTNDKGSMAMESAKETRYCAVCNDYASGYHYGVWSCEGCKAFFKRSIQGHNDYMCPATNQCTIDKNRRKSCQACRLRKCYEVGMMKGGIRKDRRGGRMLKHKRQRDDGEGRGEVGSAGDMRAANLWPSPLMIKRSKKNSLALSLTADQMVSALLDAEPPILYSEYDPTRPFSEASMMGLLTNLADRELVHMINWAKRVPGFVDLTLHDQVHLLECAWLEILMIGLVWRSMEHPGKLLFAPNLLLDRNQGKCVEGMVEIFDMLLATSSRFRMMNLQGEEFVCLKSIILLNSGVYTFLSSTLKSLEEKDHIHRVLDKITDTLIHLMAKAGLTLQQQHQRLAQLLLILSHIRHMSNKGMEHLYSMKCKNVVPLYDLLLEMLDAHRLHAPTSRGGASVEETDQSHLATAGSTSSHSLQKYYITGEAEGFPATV
In short: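 In-cell western: ERα level (green) against DNA stain Syto-64 (red) by integrated intensity. MCF7 cells in hormone-depleted medium exposed 4 h to compound at 3-0.000018 μM final (1:5 series); fulvestrant 0.1 μM as positive control.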

[1] = test system: MCF7 cells expressing mutant estrogen receptor Asp 538 Gly; assay: Test B: cell proliferation/viability assay (CellTiter-Glo) on MCF7 Asp 538 Gly mutant; format: cell-based; settings: Homo sapiens, MCF7, 168 h, MCF7 cells expressing ER Asp 538 Gly mutant, 7 days of compound exposure, read-out: proliferation MCF7 D538G IC50
In short: (§1)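 Seven-day compound exposure, 9 concentrations from 3 to 0.000001 μM, in phenol red-free medium with 5% charcoal-stripped serum. ER Tyr537Ser and Asp538Gly lines derive from transfected MCF7 selected to grow without estradiol. Viability from CellTiter-Glo luminescence, background-corrected, as percent of untreated.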

[2] = test system: MCF7 cells expressing mutant estrogen receptor Tyr 537 Ser; assay: Test B: cell proliferation/viability assay (CellTiter-Glo) on MCF7 Tyr 537 Ser mutant; format: cell-based; settings: Homo sapiens, MCF7, 168 h, MCF7 cells expressing ER Tyr 537 Ser mutant, 7 days of compound exposure, read-out: proliferation MCF7 Y537S IC50
In short: as §1

[3] = molecular target: His6-ERα298-554 Y537S mutant (ERα ligand-binding domain) (Homo sapiens (Human), UniProt P03372, Y537S); assay: Test A: biochemical antagonist activity, LanthaScreen TR-FRET ERα coactivator assay, Y537S mutant; settings: read-out: Antagonism Y537S IC50
Sequence of His6-ERα298-554 Y537S mutant (ERα ligand-binding domain) (P03372 298-554 Y537S): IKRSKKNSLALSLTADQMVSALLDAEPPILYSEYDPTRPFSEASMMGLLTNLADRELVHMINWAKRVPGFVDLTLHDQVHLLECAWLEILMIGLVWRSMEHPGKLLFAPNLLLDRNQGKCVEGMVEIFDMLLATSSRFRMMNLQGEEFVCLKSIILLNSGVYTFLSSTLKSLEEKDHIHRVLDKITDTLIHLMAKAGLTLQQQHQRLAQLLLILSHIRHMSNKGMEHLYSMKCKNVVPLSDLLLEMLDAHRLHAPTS
In short: (§2)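 TR-FRET 520:495 nm emission ratio read after overnight room-temperature incubation; IC50 derived by 4-parameter logistic fit. Mix: 0.5 nM receptor LBD, 0.5 nM Tb-His6 antibody, 250 nM PGC1a peptide, 3 nM or 10 nM estradiol, pH 7.4 phosphate buffer.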

[4] = molecular target: His6-ERα298-554 D538G mutant (ERα ligand-binding domain) (Homo sapiens (Human), UniProt P03372, D538G); assay: Test A: biochemical antagonist activity, LanthaScreen TR-FRET ERα coactivator assay, D538G mutant; settings: read-out: Antagonism D538G IC50
Sequence of His6-ERα298-554 D538G mutant (ERα ligand-binding domain) (P03372 298-554 D538G): as the sequence (P03372 298-554 Y537S) above, with S240Y, D241G counted along it
In short: as §2

[5] = test system: MCF7 cells (breast tumor cells) WT; assay: Test B: cell proliferation/viability assay (CellTiter-Glo) on MCF7 WT; format: cell-based; settings: Homo sapiens, MCF7, 168 h, 7 days of compound exposure
In short: as §1

[6] = molecular target: His6-ERα298-554 WT (ERα ligand-binding domain) (Homo sapiens (Human), UniProt P03372); assay: Test A: biochemical antagonist activity, LanthaScreen TR-FRET ERα coactivator assay, WT; settings: read-out: Antagonism WT IC50
Sequence of His6-ERα298-554 WT (ERα ligand-binding domain) (P03372 298-554): as the sequence (P03372 298-554 Y537S) above, with S240Y counted along it
In short: as §2

[7] = asterisk (*): protocol using 10 nM estradiol

Row | Compound | DC50 (ERα in MCF7 cells) [nM] | % Degradation at 3 μM (ERα in MCF7 cells) [%] | IC50 [1] [nM] | IC50 [2] [nM] | IC50 ([3]; protocol with 3 nM estradiol) [nM] | IC50 ([4]; protocol with 3 nM estradiol) [nM] | IC50 [5] [nM] | IC50 ([6]; protocol with 3 nM estradiol) [nM] | IC50 [3, 7] [nM] | IC50 [4, 7] [nM] | IC50 [6, 7] [nM]
1 | Oc1ccc2c(c1)SCCC(c1cnc3c(c1)CCN3)=C2c1ccc(O[C@H]2CCN(CCCF)C2)cc1 [Example 183, 4-(2,3-dihydro-1H-pyrrolo[2,3-b]pyridin-5-yl)-5-[4-[(3S)-1-(3-fluoropropyl)pyrrolidin-3-yl]oxyphenyl]-2,3-dihydro-1-benzothiepin-8-ol] | 1 | 83 | 5 | 73 | 70 | 122 | 1 | 7 |  |  | 
2 | Oc1ccc2c(c1)SCCC(c1ccc3occc3c1)=C2c1ccc(O[C@H]2CCN(CCCF)C2)cc1 [Example 184, 4-(benzofuran-5-yl)-5-[4-[(3S)-1-(3-fluoropropyl)pyrrolidin-3-yl]oxyphenyl]-2,3-dihydro-1-benzothiepin-8-ol] | 0.7 | 87 | 0.7 | 4 | 4 | 6 | 0.3 | 1 |  |  | 
3 | CCOc1ccc(C2=C(c3ccc(O[C@H]4CCN(CCCF)C4)cc3)c3ccc(O)cc3SCC2)cc1F [Example 185, 4-(4-ethoxy-3-fluoro-phenyl)-5-[4-[(3S)-1-(3-fluoropropyl)pyrrolidin-3-yl]oxyphenyl]-2,3-dihydro-1-benzothiepin-8-ol] | 0.7 | 84 | 1 | 6 | 65 | 104 | 0.4 | 2.9 |  |  | 
4 | CCOc1ccc(C2=C(c3ccc(O[C@H]4CCN(CCCF)C4)cc3)c3ccc(O)cc3SCC2)c(C)c1 [Example 186, 4-(4-ethoxy-2-methyl-phenyl)-5-[4-[(3S)-1-(3-fluoropropyl)pyrrolidin-3-yl]oxyphenyl]-2,3-dihydro-1-benzothiepin-8-ol] | 0.6 | 85 | 0.4 | 5 |  |  | 0.3 |  | 16 | 21 | 1
5 | CCOc1ccc(C2=C(c3ccc(O[C@H]4CCN(CCCF)C4)cc3)c3ccc(O)cc3SCC2)c(F)n1 [Example 187, 4-(6-ethoxy-2-fluoro-3-pyridyl)-5-[4-[(3S)-1-(3-fluoropropyl)pyrrolidin-3-yl]oxyphenyl]-2,3-dihydro-1-benzothiepin-8-ol] | 0.5 | 92 | 0.7 | 4 | 22 | 43 | 0.2 | 1.5 |  |  | 
6 | Oc1ccc2c(c1)SCCC(c1ccc(F)c(OC(F)F)c1)=C2c1ccc(O[C@H]2CCN(CCCF)C2)cc1 [Example 188, 4-[3-(difluoromethoxy)-4-fluoro-phenyl]-5-[4-[(3S)-1-(3-fluoropropyl)pyrrolidin-3-yl]oxyphenyl]-2,3-dihydro-1-benzothiepin-8-ol] | 0.8 | 90 | 2 | 4 | 157 | 266 | 0.2 | 8.2 |  |  | 
7 | COc1ccc(C2=C(c3ccc(O[C@H]4CCN(CCCF)C4)cc3)c3ccc(O)cc3SCC2)c(F)c1 [Example 189, 4-(2-fluoro-4-methoxy-phenyl)-5-[4-[(3S)-1-(3-fluoropropyl)pyrrolidin-3-yl]oxyphenyl]-2,3-dihydro-1-benzothiepin-8-ol] | 0.3 | 88 | 1 | 4 |  |  | 0.2 |  | 19 | 31 | 2
8 | Oc1ccc2c(c1)SCCC(c1ccc(OC(F)(F)F)c(F)c1)=C2c1ccc(O[C@H]2CCN(CCCF)C2)cc1 [Example 190, 5-[4-[(3S)-1-(3-fluoropropyl)pyrrolidin-3-yl]oxyphenyl]-4-[3-fluoro-4-(trifluoromethoxy)phenyl]-2,3-dihydro-1-benzothiepin-8-ol] | 0.5 | 91 | 0.8 | 6 |  |  | 0.2 |  | 425 | 638 | 39
